According to the NIST ThermoML archive (doi:10.1016/j.jct.2019.02.028):

Experiment: xn = mol fraction of the nth substance listed
Details: Gas, Burnett expansion method

C=C(F)C(F)(F)F [2,3,3,3-tetrafluoro-1-propene] + FCF
Details | mass density [kg/m3]
333.59 K, 860.21 kPa, x2 = 0.698 | 23.99
333.59 K, 1119 kPa, x2 = 0.259 | 46.7
333.59 K, 1128.1 kPa, x2 = 0.449 | 40.52
333.59 K, 1537.9 kPa, x2 = 0.259 | 70.09
333.6 K, 552.32 kPa, x2 = 0.874 | 12.52
333.6 K, 589.81 kPa, x2 = 0.698 | 15.97
333.61 K, 804.94 kPa, x2 = 0.874 | 18.8
333.61 K, 1164.8 kPa, x2 = 0.874 | 28.24
333.61 K, 1308.2 kPa, x2 = 0.119 | 63.18
333.64 K, 1653.6 kPa, x2 = 0.874 | 42.42
338.52 K, 549.73 kPa, x2 = 0.449 | 17.96
338.52 K, 1260 kPa, x2 = 0.698 | 36.03
338.52 K, 1772.2 kPa, x2 = 0.698 | 54.11
338.52 K, 2408.6 kPa, x2 = 0.698 | 81.28
338.53 K, 875.76 kPa, x2 = 0.698 | 23.99
338.53 K, 960.84 kPa, x2 = 0.119 | 42.01
338.53 K, 1150.8 kPa, x2 = 0.449 | 40.51
338.53 K, 2177.3 kPa, x2 = 0.449 | 91.55
338.54 K, 554.13 kPa, x2 = 0.259 | 20.7
338.54 K, 801.95 kPa, x2 = 0.449 | 26.97
338.54 K, 1788.2 kPa, x2 = 0.119 | 94.94
338.54 K, 2337.3 kPa, x2 = 0.874 | 63.7
338.54 K, 3099.5 kPa, x2 = 0.698 | 122
338.54 K, 3099.9 kPa, x2 = 0.874 | 96.05
338.54 K, 3850.5 kPa, x2 = 0.874 | 144.78
338.55 K, 671.73 kPa, x2 = 0.119 | 27.97
338.55 K, 1615.3 kPa, x2 = 0.449 | 60.93
338.55 K, 1689.4 kPa, x2 = 0.874 | 42.41
338.56 K, 599.87 kPa, x2 = 0.698 | 15.97
338.56 K, 803.81 kPa, x2 = 0.259 | 31.09
338.56 K, 1143.1 kPa, x2 = 0.259 | 46.69
338.56 K, 1187 kPa, x2 = 0.874 | 28.23
338.56 K, 1577.4 kPa, x2 = 0.259 | 70.08
338.56 K, 2083.1 kPa, x2 = 0.259 | 105.4
338.57 K, 819.08 kPa, x2 = 0.874 | 18.8
338.57 K, 1339.9 kPa, x2 = 0.119 | 63.15
338.61 K, 561.65 kPa, x2 = 0.874 | 12.52
343.46 K, 1811.6 kPa, x2 = 0.698 | 54.1
343.47 K, 558.86 kPa, x2 = 0.449 | 17.95
343.47 K, 2473.8 kPa, x2 = 0.698 | 81.25
343.48 K, 1650.8 kPa, x2 = 0.449 | 60.9
343.48 K, 3195 kPa, x2 = 0.874 | 95.98
343.49 K, 609.66 kPa, x2 = 0.698 | 15.97
343.49 K, 980.04 kPa, x2 = 0.119 | 42
343.49 K, 1173.6 kPa, x2 = 0.449 | 40.5
343.49 K, 1284.8 kPa, x2 = 0.698 | 36.02
343.5 K, 815.99 kPa, x2 = 0.449 | 26.96
343.5 K, 1724.4 kPa, x2 = 0.874 | 42.4
343.5 K, 1840.8 kPa, x2 = 0.119 | 94.9
343.5 K, 2238.7 kPa, x2 = 0.449 | 91.51
343.5 K, 2312 kPa, x2 = 0.119 | 142.7
343.5 K, 3209.6 kPa, x2 = 0.698 | 121.97
343.51 K, 683.81 kPa, x2 = 0.119 | 27.96
343.51 K, 891.35 kPa, x2 = 0.698 | 23.98
343.51 K, 1370.9 kPa, x2 = 0.119 | 63.13
343.51 K, 1616.3 kPa, x2 = 0.259 | 70.08
343.51 K, 2395 kPa, x2 = 0.874 | 63.68
343.51 K, 2864.8 kPa, x2 = 0.449 | 137.45
343.51 K, 4012.3 kPa, x2 = 0.874 | 144.62
343.52 K, 1167 kPa, x2 = 0.259 | 46.68
343.52 K, 2146.2 kPa, x2 = 0.259 | 105.38
343.54 K, 563.91 kPa, x2 = 0.259 | 20.69
343.54 K, 833.17 kPa, x2 = 0.874 | 18.79
343.54 K, 1209.2 kPa, x2 = 0.874 | 28.23
343.55 K, 818.98 kPa, x2 = 0.259 | 31.08
343.56 K, 570.8 kPa, x2 = 0.874 | 12.51
348.39 K, 1850.8 kPa, x2 = 0.698 | 54.08
348.42 K, 568.01 kPa, x2 = 0.449 | 17.95
348.42 K, 1308.9 kPa, x2 = 0.698 | 36.01
348.42 K, 2538.2 kPa, x2 = 0.698 | 81.23
348.43 K, 695.54 kPa, x2 = 0.119 | 27.95
348.43 K, 1196 kPa, x2 = 0.449 | 40.49
348.43 K, 3289.2 kPa, x2 = 0.874 | 95.91
348.44 K, 619.54 kPa, x2 = 0.698 | 15.96
348.45 K, 906.67 kPa, x2 = 0.698 | 23.97
348.45 K, 999.4 kPa, x2 = 0.119 | 41.99
348.45 K, 1401.8 kPa, x2 = 0.119 | 63.11
348.45 K, 1687.6 kPa, x2 = 0.449 | 60.87
348.45 K, 1759.4 kPa, x2 = 0.874 | 42.38
348.45 K, 1892.6 kPa, x2 = 0.119 | 94.85
348.45 K, 2299.3 kPa, x2 = 0.449 | 91.46
348.45 K, 2405.8 kPa, x2 = 0.119 | 142.61
348.45 K, 3317.7 kPa, x2 = 0.698 | 121.94
348.46 K, 573.31 kPa, x2 = 0.259 | 20.69
348.46 K, 830.53 kPa, x2 = 0.449 | 26.96
348.46 K, 1654.8 kPa, x2 = 0.259 | 70.07
348.46 K, 2452 kPa, x2 = 0.874 | 63.66
348.46 K, 2967.9 kPa, x2 = 0.449 | 137.38
348.47 K, 833.57 kPa, x2 = 0.259 | 31.08
348.47 K, 847.11 kPa, x2 = 0.874 | 18.79
348.47 K, 1190.6 kPa, x2 = 0.259 | 46.68
348.47 K, 2210.4 kPa, x2 = 0.259 | 105.36
348.47 K, 4171.1 kPa, x2 = 0.874 | 144.45
348.48 K, 1231.2 kPa, x2 = 0.874 | 28.22
348.51 K, 579.9 kPa, x2 = 0.874 | 12.51
353.35 K, 1889.8 kPa, x2 = 0.698 | 54.07
353.37 K, 1218.4 kPa, x2 = 0.449 | 40.48
353.37 K, 2601.9 kPa, x2 = 0.698 | 81.21
353.38 K, 577.17 kPa, x2 = 0.449 | 17.94
353.38 K, 1943.6 kPa, x2 = 0.119 | 94.8
353.38 K, 3382.4 kPa, x2 = 0.874 | 95.84
353.39 K, 629.39 kPa, x2 = 0.698 | 15.96
353.39 K, 707.68 kPa, x2 = 0.119 | 27.94
353.39 K, 922.11 kPa, x2 = 0.698 | 23.97
353.39 K, 1432.5 kPa, x2 = 0.119 | 63.08
353.39 K, 1723.8 kPa, x2 = 0.449 | 60.85
353.39 K, 2359.1 kPa, x2 = 0.449 | 91.42
353.39 K, 3068.7 kPa, x2 = 0.449 | 137.31
353.4 K, 582.53 kPa, x2 = 0.259 | 20.69
353.4 K, 844.78 kPa, x2 = 0.449 | 26.95
353.4 K, 1018.6 kPa, x2 = 0.119 | 41.97
353.4 K, 1333.5 kPa, x2 = 0.698 | 36
353.4 K, 1794.1 kPa, x2 = 0.874 | 42.37
353.4 K, 2493.2 kPa, x2 = 0.119 | 142.52
353.4 K, 2508.3 kPa, x2 = 0.874 | 63.64
353.4 K, 3424.3 kPa, x2 = 0.698 | 121.92
353.41 K, 1213.9 kPa, x2 = 0.259 | 46.67
353.41 K, 1693 kPa, x2 = 0.259 | 70.07
353.41 K, 2895.5 kPa, x2 = 0.259 | 158.94
353.41 K, 4232.8 kPa, x2 = 0.698 | 183.2
353.41 K, 4326.6 kPa, x2 = 0.874 | 144.29
353.42 K, 848.3 kPa, x2 = 0.259 | 31.07
